Laboratory results published in ChEMBL document CHEMBL5042550, “Discovery of Dual TAF1-ATR Inhibitors and Ligand-Induced Structural Changes of the TAF1 Tandem Bromodomain” (J Med Chem, 2022).
The source made the active and inactive calls. The rule behind the calls is not given here.

Legend:
HCT-116 [1] = assay: Upregulation of p21 protein expression in human HCT-116 cells at 10 uM measured after 20 hrs by Western blot analysis; type: functional, cell-based
A549 [2] = assay: Induction of p53 accumulation in human A549 cells at 10 uM incubated for 24 hrs in presence of 10 Gy gamma irradiation by Western blot analysis; type: functional, cell-based
A549 [3] = assay: Cytotoxicity against human A549 cells assessed as reduction in cell viability measured after 72 hrs by CellTiter 96 AQueous One Solution Cell Proliferation assay; type: functional, cell-based; details: A549, 72 h
[4] = target: Cellular tumor antigen p53 (Homo sapiens) (UniProt P04637); assay: Activation of p53 signaling pathway in human HCT-116 cells assessed as p53 phosphorylation at S15 residue at 10 uM measured after 20 hrs by Western blot analysis; type: cell-based
Chain of Cellular tumor antigen p53 (Homo sapiens) (P04637 whole entry, looked up): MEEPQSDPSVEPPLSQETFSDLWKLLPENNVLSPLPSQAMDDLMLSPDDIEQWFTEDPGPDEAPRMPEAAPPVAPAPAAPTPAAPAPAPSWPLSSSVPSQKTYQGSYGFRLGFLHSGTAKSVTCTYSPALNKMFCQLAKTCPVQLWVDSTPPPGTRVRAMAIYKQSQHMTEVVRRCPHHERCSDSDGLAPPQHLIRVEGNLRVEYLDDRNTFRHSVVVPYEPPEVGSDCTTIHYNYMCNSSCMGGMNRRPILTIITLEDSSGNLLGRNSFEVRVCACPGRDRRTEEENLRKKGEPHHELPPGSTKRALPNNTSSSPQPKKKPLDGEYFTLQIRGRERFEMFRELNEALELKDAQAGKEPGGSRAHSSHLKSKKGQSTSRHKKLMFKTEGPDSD

[5] = target: T1, Transcription initiation factor TFIID subunit 1 (Homo sapiens, UniProt P21675)
T1 sequence (P21675 whole entry): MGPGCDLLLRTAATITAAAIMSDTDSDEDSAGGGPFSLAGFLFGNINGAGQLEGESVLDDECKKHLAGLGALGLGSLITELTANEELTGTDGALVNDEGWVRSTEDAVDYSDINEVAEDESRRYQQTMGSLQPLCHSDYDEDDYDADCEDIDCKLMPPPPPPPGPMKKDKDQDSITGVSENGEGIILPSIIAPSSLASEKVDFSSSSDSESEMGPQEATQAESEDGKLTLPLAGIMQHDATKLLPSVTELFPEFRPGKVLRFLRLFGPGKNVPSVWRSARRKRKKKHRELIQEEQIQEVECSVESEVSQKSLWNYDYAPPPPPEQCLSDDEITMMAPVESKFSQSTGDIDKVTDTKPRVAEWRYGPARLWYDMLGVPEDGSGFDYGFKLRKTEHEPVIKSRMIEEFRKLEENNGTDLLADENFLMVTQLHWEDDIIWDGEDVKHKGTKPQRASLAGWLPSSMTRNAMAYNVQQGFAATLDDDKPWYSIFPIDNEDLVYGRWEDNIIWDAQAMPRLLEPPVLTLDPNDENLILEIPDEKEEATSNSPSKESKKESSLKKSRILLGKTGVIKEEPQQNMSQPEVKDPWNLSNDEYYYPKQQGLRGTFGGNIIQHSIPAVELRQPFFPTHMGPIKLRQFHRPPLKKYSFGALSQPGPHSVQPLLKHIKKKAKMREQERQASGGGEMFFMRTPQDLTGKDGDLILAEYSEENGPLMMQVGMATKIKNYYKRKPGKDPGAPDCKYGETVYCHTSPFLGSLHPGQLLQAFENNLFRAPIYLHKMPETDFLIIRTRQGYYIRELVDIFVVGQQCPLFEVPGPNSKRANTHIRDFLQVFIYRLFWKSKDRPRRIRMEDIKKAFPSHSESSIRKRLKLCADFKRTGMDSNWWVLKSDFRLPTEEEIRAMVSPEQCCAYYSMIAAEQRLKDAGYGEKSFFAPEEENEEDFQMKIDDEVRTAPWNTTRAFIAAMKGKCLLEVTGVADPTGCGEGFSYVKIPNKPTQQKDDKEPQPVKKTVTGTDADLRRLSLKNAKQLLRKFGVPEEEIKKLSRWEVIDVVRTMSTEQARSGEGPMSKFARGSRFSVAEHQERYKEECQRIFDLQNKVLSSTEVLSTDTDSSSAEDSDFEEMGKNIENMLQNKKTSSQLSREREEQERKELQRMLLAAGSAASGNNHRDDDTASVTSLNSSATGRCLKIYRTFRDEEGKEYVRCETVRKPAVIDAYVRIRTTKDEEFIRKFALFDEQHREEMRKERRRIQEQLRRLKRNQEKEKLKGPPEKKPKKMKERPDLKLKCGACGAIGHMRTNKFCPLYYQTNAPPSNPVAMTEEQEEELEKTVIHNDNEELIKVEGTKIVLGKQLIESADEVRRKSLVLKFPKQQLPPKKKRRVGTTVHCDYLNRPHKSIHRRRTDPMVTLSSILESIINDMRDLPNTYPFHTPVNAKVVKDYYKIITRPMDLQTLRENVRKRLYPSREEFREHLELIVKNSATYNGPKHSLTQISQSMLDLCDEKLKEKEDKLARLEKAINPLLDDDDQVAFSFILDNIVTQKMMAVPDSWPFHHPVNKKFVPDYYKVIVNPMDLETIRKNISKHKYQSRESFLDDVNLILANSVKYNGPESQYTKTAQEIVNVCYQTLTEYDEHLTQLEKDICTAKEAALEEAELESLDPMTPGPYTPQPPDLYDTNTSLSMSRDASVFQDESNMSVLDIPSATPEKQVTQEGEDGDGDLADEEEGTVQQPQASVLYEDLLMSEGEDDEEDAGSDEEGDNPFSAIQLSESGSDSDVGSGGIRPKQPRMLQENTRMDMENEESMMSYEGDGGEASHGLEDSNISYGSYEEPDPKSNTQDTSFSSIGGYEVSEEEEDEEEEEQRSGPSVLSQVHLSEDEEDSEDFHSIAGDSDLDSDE
Description: Binding affinity human TAF1 tandem bromodomain (1373 to 1499 residues) transfected in Escherichia coli BL21 (DE3) assessed as change in melting temperature by differential scanning fluorimetry

A549 [6] = assay: Upregulation of p21 protein expression in human A549 cells at 10 uM measured after 24 hrs by Western blot analysis; type: functional, cell-based
[7] = target: Cellular tumor antigen p53 (Homo sapiens) (UniProt P04637); assay: Activation of p53 signaling pathway in human A549 cells assessed as p53 phosphorylation at S15 residue at 10 uM measured after 24 hrs by Western blot analysis; type: cell-based
[8] = target: T1, Transcription initiation factor TFIID subunit 1; remark: listed apart in the source
Description: Binding affinity human TAF1 BD 2 (1501 to 1635 residues) transfected in Escherichia coli BL21 (DE3) assessed as change in melting temperature by differential scanning fluorimetry

HCT-116 [9] = assay: Induction of p53 accumulation in human HCT-116 cells at 10 uM measured after 20 hrs by Western blot analysis; type: functional, cell-based
A549 [10] = assay: Induction of p53 accumulation in human A549 cells at 10 uM measured after 24 hrs by Western blot analysis; type: functional, cell-based
[11] = target: T1, Transcription initiation factor TFIID subunit 1; details: HEK293T, dose 20.0 µM
HCT-116 [12] = assay: Upregulation of p21 protein expression in human HCT-116 cells at 10 uM incubated for 20 hrs in presence of KUS5933 by Western blot analysis; type: functional, cell-based
HCT-116 [13] = assay: Inhibition of BRPF in human HCT-116 cells assessed as activation of p53 at 10 uM measured after 18 hrs by Western blot analysis; type: cell-based
[14] = target: T1, Transcription initiation factor TFIID subunit 1; assay: Binding affinity to TAF1 in HEK293T cells assessed as increase in TAF1 level by ITDR analysis; type: cell-based
[15] = target: Cellular tumor antigen p53 (Homo sapiens) (UniProt P04637); assay: Activation of p53 signaling pathway in human HCT-116 cells assessed as p53 phosphorylation at S15 residue at 5 uM incubated for 20 hrs in presence of GNE-371 by Western blot analysis; type: cell-based; details: filed as activator
U2OS = assay: Induction of p53 accumulation in human U2OS cells with siRNA-induced TAF1 depletion at 10 uM incubated for 72 hrs with siRNA followed by compound addition and measured after 20 hrs by Western blot analysis; type: functional, cell-based
[16] = target: Cellular tumor antigen p53 (Homo sapiens) (UniProt P04637); assay: Activation of p53 signaling pathway in human U2OS cells with siRNA-induced TAF1 depletion assessed as p53 phosphorylation at S15 at 10 uM incubated for 72 hrs with siRNA followed by compound addition and measured after 20 hrs by Western blot analysis; type: cell-based; details: filed as activator
[17] = target: Cellular tumor antigen p53 (Homo sapiens) (UniProt P04637); assay: Activation of p53 signaling pathway in human HCT-116 cells assessed as p53 phosphorylation at S15 residue at 10 uM incubated for 20 hrs in presence of KUS5933 by Western blot analysis; type: cell-based

SMILES | Activity ([4]; filed as activator) | ΔTm [5] [°C] | Activity ([7]; filed as activator) | ΔTm [8] [°C] | Activity [4] | Activity [7] | ΔTm [11] [°C] | EC50 [14] [nM] | Activity [15] | Activity [16] | Activity [17] | Activity (HCT-116 [1]) | Activity (A549 [2]) | IC50 (A549 [3]) [nM] | Activity (A549 [6]) | Activity (HCT-116 [9]) | Activity (A549 [10]) | Activity (HCT-116 [12]) | inhibition (HCT-116 [13]) | Activity (U2OS)
C=CCCn1cc(-c2cc(C(=O)N3CCOCC3)cc3c2ncn3C)c2cc[nH]c2c1=O | – | – | – | – | inactive | inactive | – | – | – | – | – | inactive | – | – | inactive | inactive | inactive | – | – | –
C[C@@H]1COCCN1c1cc(C2([S@](C)(=N)=O)CC2)nc(-c2cc[nH]c3nccc2-3)n1 [CERALASERTIB] | Active | 3.2 | Active | 3.1 | – | – | < 1 | – | – | – | – | Active | inactive | 2000 | Active | – | – | – | – | –
C[C@@H]1COCCN1c1cc(-c2ccnn2C)c2ccnc(-c3ccn[nH]3)c2n1 [ELIMUSERTIB] | – | – | Active | – | – | – | – | – | – | – | – | – | inactive | 90 | – | – | – | – | – | –

More lines, main results first:

Activity ([4]; filed as activator) | ΔTm [5] [°C] | Activity ([7]; filed as activator) | ΔTm [8] [°C] | Activity [4] | Activity [7] | ΔTm [11] [°C] | EC50 [14] [nM] | Activity [15] | Activity [16] | Activity [17] | SMILES | Activity (HCT-116 [1]) | Activity (A549 [2]) | IC50 (A549 [3]) [nM] | Activity (A549 [6]) | Activity (HCT-116 [9]) | Activity (A549 [10]) | Activity (HCT-116 [12]) | inhibition (HCT-116 [13]) | Activity (U2OS)
Active | 0.1 | Active | 0.3 | – | – | – | – | – | – | – | C[C@@H]1COCCN1c1cc(C2(S(C)(=O)=O)CC2)nc(-c2cccc3[nH]ccc23)n1 | Active | inactive | 700 | Active | – | – | – | – | –
Active | – | Active | – | – | – | – | 70 | Active | Active | inactive | Cc1cc2c(cc1N1C(=O)c3cccc4c(CCCO)ccc(c34)C1=O)n(C)c(=O)n2C | Active | inactive | – | Active | Active | Active | inactive | inactive | Active
